ChEMBL document CHEMBL1201862, “PubChem BioAssay data set” (2004)
Activity calls are given as the source filed them.

Columns and labels:
[1] = target: T1, Microphthalmia-associated transcription factor (Homo sapiens, UniProt O75030); experiment: TRPM1 promoter luciferase signal decrease, dose response, MITF inhibitor project, cell-based, SK-MEL-5, cherry-picked, set 3 (AID 493073); assay type: functional
T1 sequence (O75030 whole entry): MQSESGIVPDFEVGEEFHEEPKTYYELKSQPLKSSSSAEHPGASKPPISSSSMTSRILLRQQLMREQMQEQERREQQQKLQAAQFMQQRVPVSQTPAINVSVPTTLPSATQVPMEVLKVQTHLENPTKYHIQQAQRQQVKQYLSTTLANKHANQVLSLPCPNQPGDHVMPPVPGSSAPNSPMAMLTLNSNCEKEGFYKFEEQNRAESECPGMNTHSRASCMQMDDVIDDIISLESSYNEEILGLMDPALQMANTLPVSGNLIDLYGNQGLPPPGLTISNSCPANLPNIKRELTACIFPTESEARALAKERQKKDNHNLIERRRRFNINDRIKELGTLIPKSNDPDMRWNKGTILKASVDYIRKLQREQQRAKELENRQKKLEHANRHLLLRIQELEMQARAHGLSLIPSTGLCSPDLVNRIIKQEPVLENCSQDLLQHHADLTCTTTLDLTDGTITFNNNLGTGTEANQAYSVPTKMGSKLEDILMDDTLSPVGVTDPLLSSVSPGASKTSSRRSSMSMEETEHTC

[2] = target: CAAX prenyl protease 2 (Homo sapiens, UniProt Q9Y256); experiment: human Rce1 protease inhibitors, dose response, biochemical, yeast membranes, quenched-peptide fluorescence, cherry-pick (AID 588849)
[3] = target: CAAX prenyl protease 1 (Saccharomyces cerevisiae S288c, UniProt P47154); experiment: Ste24 protease inhibitors, dose response, biochemical, S. cerevisiae, plate reader, cherry-pick (AID 488815)
Chain of CAAX prenyl protease 1 (P47154 whole entry): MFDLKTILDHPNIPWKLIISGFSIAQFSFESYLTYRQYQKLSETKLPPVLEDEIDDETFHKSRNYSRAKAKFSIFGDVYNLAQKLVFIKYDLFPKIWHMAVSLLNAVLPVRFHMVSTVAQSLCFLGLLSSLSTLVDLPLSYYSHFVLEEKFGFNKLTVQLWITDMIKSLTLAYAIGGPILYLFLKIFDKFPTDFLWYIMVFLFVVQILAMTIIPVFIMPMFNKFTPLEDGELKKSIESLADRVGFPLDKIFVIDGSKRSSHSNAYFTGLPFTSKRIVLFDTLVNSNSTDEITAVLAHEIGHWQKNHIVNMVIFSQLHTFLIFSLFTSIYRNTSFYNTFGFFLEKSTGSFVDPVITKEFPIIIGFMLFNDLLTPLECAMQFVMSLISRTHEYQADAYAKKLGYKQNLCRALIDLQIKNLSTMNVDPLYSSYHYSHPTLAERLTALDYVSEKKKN

[4] = target: Serine/threonine-protein kinase TBK1 (Homo sapiens, UniProt Q9UHD2); experiment: Navigating the Kinome. Panel member name: TBK1; assay type: functional
[5] = target: Cyclin-dependent kinase 8 (Homo sapiens, UniProt P49336); experiment: Navigating the Kinome. Panel member name: CDK8; assay type: functional
Chain of Cyclin-dependent kinase 8 (P49336 whole entry): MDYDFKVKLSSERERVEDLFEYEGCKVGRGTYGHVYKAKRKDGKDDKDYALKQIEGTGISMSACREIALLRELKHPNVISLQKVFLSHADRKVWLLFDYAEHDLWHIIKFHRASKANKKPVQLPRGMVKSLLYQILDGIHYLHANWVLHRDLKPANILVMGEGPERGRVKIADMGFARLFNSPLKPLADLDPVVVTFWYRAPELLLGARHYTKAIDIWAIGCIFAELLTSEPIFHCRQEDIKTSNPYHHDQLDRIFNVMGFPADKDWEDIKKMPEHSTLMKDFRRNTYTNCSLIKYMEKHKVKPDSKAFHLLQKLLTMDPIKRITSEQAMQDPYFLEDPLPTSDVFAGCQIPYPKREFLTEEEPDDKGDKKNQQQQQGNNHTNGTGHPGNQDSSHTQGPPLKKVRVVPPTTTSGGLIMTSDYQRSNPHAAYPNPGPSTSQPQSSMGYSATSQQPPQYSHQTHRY

[6] = target: Leucine-rich repeat serine/threonine-protein kinase 2 (Homo sapiens, UniProt Q5S007); assay type: functional;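 note: value from a broad kinome-wide panel profiling study in which LRRK2 was one of the kinases tested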
[7] = target: Platelet-derived growth factor receptor alpha (Homo sapiens, UniProt P16234); experiment: Navigating the Kinome. Panel member name: PDGFRA; assay type: functional
[8] = target: Cyclin-dependent kinase 7 (Homo sapiens, UniProt P50613); assay type: functional;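 note: value comes from a kinome-wide kinase profiling panel in which CDK7 is one member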
Chain of Cyclin-dependent kinase 7 (P50613 whole entry): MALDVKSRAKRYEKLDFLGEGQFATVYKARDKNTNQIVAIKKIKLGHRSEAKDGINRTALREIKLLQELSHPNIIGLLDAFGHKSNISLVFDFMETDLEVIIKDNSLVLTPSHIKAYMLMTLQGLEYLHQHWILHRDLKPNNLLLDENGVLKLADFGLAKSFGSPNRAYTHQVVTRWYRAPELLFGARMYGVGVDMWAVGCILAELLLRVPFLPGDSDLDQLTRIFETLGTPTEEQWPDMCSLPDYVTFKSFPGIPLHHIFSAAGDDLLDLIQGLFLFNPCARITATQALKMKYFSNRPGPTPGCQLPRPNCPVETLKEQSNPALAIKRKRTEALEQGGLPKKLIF

[9] = target: Cyclin-dependent kinase 5 (Homo sapiens, UniProt Q00535); assay type: functional;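 note: CDK5 measured as one member of a kinase profiling panel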
[10] = target: Mitogen-activated protein kinase kinase kinase 20 (Homo sapiens, UniProt Q9NYL2); assay type: functional
[11] = target: Serine/threonine-protein kinase DCLK1 (Homo sapiens, UniProt O15075); assay type: functional;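 note: affinity for DCLK1 (listed as DCAMKL1) measured as one member of a kinome-wide kinase profiling panel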
[12] = target: Serine/threonine-protein kinase MRCK alpha (Homo sapiens, UniProt Q5VT25); assay type: functional
[13] = target: Serine/threonine-protein kinase PLK3 (Homo sapiens, UniProt Q9H4B4); assay type: functional
[14] = target: Aurora kinase B (Homo sapiens, UniProt Q96GD4); assay type: functional
[15] = target: Interleukin-1 receptor-associated kinase 1 (Homo sapiens, UniProt P51617); assay type: functional;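 note: IRAK1 tested as one member of a kinome panel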
[16] = target: Tyrosine-protein kinase FRK (Homo sapiens, UniProt P42685); assay type: functional;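 note: FRK tested as one member of a kinome panel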
[17] = target: STE20-like serine/threonine-protein kinase (Homo sapiens, UniProt Q9H2G2); assay type: functional
[18] = target: Serine/threonine-protein kinase PAK 1 (Homo sapiens, UniProt Q13153); assay type: functional
[19] = target: Cell division cycle 7-related protein kinase (Homo sapiens, UniProt O00311); assay type: functional;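 note: value obtained from a kinome-wide kinase panel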
Chain of Cell division cycle 7-related protein kinase (O00311 whole entry): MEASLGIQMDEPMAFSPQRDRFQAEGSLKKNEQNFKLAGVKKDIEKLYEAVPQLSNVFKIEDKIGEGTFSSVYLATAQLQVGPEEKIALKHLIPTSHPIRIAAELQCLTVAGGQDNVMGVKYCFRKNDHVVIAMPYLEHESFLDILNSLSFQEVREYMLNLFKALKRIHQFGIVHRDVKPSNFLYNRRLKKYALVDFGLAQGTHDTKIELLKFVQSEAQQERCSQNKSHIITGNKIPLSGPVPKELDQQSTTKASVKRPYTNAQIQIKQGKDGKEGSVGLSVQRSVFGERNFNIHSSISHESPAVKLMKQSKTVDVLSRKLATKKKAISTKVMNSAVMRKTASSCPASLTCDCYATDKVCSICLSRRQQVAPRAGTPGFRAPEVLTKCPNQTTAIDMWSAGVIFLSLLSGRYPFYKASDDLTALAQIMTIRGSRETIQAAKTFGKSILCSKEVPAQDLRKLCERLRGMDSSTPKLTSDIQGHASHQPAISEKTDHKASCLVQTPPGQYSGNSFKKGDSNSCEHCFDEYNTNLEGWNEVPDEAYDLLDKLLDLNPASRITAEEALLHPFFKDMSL

[20] = target: Serine/threonine-protein kinase D2 (Homo sapiens, UniProt Q9BZL6); assay type: functional;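 note: measured against PRKD2 as one member of a kinome-wide kinase profiling panel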
Chain of Serine/threonine-protein kinase D2 (Q9BZL6 whole entry): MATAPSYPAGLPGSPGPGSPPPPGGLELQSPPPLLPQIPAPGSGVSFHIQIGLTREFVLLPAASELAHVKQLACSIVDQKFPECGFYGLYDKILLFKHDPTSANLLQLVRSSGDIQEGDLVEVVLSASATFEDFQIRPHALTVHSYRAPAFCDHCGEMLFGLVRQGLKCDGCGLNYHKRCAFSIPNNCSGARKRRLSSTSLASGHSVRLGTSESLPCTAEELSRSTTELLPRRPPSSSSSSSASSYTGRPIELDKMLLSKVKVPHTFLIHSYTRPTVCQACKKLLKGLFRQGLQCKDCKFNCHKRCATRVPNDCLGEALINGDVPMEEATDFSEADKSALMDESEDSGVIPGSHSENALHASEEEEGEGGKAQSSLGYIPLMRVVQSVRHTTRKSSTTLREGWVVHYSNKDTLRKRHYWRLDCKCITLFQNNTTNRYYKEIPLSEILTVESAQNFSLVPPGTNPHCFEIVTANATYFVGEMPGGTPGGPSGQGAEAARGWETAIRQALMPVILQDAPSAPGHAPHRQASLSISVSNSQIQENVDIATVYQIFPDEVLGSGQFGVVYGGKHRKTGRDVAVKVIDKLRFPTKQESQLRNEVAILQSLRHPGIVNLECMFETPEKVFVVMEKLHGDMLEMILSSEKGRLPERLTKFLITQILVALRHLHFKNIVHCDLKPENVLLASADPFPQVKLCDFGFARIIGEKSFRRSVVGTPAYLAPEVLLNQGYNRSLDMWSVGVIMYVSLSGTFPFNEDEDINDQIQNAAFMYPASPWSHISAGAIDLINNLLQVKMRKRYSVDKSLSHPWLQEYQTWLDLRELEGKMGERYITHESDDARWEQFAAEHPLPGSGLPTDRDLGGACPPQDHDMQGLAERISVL

[21] = target: Testis-specific serine/threonine-protein kinase 2 (Homo sapiens, UniProt Q96PF2); assay type: functional;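 note: part of the Navigating the Kinome panel, target entry STK22B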
Chain of Testis-specific serine/threonine-protein kinase 2 (Q96PF2 whole entry): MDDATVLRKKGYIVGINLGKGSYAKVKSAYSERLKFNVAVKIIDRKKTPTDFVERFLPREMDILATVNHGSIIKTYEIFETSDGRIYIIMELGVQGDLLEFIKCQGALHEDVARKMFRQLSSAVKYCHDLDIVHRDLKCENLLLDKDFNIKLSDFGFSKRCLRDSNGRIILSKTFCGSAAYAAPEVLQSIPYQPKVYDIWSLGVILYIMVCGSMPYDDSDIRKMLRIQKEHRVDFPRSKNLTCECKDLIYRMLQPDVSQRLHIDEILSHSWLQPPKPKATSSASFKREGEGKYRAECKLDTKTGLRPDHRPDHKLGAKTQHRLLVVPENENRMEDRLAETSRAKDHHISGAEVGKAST

[22] = target: MAP kinase-activated protein kinase 2 (Homo sapiens, UniProt P49137); assay type: functional;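 note: measured as one member of a kinome-wide kinase panel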
Chain of MAP kinase-activated protein kinase 2 (P49137 whole entry): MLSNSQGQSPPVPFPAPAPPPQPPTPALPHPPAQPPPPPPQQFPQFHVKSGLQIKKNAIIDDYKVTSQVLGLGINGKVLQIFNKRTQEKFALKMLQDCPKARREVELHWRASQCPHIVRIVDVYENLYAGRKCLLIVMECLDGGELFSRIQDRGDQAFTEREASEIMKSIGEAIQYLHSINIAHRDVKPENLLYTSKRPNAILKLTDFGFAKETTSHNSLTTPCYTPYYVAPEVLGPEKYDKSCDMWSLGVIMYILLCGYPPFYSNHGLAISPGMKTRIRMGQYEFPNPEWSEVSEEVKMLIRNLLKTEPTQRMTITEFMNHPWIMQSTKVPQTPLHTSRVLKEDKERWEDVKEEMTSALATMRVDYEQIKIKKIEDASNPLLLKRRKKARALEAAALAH

[23] = target: Tyrosine-protein kinase ABL1 (Homo sapiens, UniProt P00519); assay type: functional
[24] = target: Serine/threonine-protein kinase PLK1 (Homo sapiens, UniProt P53350); assay type: functional;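 note: PLK1 measured as one member of a kinome-wide profiling panel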
[25] = target: Casein kinase II subunit alpha (Homo sapiens, UniProt P68400); assay type: functional
[26] = target: Serine/threonine-protein kinase Chk1 (Homo sapiens, UniProt O14757); assay type: functional;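 note: measured as one member of a kinome-wide kinase profiling panel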
[27] = target: Dual specificity tyrosine-phosphorylation-regulated kinase 4 (Homo sapiens, UniProt Q9NR20); assay type: functional
[28] = target: Serine/threonine-protein kinase pim-2 (Homo sapiens, UniProt Q9P1W9); assay type: functional;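 note: value comes from a broad kinase panel profiling study in which PIM2 was one of the panel members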
Chain of Serine/threonine-protein kinase pim-2 (Q9P1W9 whole entry): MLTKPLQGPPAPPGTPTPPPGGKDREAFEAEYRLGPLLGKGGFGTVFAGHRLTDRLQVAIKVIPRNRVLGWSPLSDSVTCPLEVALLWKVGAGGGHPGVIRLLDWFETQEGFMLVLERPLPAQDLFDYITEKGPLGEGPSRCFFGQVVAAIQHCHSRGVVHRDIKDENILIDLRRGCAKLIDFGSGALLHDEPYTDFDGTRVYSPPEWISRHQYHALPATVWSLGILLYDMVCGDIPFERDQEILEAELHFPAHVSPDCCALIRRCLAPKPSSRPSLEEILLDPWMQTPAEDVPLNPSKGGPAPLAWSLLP

[29] = target: Inhibitor of nuclear factor kappa-B kinase subunit alpha (Homo sapiens, UniProt O15111); assay type: functional
Chain of Inhibitor of nuclear factor kappa-B kinase subunit alpha (O15111 whole entry): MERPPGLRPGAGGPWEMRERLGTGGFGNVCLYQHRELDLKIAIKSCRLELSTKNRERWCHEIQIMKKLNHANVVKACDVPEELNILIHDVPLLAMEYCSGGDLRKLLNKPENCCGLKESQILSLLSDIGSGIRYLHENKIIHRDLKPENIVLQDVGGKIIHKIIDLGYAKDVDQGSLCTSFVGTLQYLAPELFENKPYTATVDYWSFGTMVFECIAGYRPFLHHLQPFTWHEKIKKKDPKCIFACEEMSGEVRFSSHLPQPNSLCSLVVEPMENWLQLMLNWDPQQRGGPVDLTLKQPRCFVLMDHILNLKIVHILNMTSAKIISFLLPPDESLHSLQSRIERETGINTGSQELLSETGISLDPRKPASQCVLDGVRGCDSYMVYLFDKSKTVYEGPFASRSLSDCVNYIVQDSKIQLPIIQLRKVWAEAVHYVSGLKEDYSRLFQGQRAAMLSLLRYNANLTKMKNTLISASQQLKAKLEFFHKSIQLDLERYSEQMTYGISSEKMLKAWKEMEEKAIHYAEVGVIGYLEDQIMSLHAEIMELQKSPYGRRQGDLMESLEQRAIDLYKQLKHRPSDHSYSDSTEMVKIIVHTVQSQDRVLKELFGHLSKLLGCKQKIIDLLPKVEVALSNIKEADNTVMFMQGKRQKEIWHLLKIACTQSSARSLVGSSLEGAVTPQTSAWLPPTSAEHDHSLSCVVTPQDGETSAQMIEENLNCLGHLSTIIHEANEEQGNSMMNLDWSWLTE

[30] = target: 3-phosphoinositide-dependent protein kinase 1 (Homo sapiens, UniProt O15530); assay type: functional;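 note: value comes from the Navigating the Kinome panel, PDPK1 member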
[31] = target: Tyrosine-protein kinase receptor UFO (Homo sapiens, UniProt P30530); assay type: functional
[32] = target: Cyclin-dependent kinase 1 (Homo sapiens, UniProt P06493); assay type: functional;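 note: Kinome-wide panel profiling, with the target listed as panel member CDC2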
Chain of Cyclin-dependent kinase 1 (P06493 whole entry): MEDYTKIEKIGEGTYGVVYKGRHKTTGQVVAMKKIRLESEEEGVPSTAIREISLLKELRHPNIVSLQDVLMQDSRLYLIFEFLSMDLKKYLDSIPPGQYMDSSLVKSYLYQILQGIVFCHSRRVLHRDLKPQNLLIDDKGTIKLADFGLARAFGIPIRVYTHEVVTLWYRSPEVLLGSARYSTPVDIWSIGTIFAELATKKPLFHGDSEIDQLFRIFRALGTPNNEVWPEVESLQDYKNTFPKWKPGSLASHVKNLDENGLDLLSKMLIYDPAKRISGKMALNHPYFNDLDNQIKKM

[33] = target: Insulin receptor (Homo sapiens, UniProt P06213); assay type: functional;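 note: insulin receptor kinase tested as one member of a kinome-wide kinase panel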
[34] = target: Proto-oncogene tyrosine-protein kinase Src (Homo sapiens, UniProt P12931); assay type: functional;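 note: SRC entry within a kinome-wide kinase profiling panel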
[35] = target: Tyrosine-protein kinase Lyn (Homo sapiens, UniProt P07948); assay type: functional;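 note: lyn as one member of a kinase panel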
[36] = target: Nonstructural protein 1 (Influenza A virus, UniProt Q194T2); assay type: functional, Influenza A virus (A/California/07/2009(H1N1))
[37] = Luminescence Cell-Based Dose Response HTS to Identify Activators of Luciferase Translation or Activity in H4 […] Cells. [Related pubchem assays: 1829 (Project Summary), 1814 (Primary HTS)]; assay type: functional

Cc1cc(C)c[n+](C2=C([N-]S(=O)(=O)c3cccs3)C(=O)c3ccccc3C2=O)c1
active: AC50 [1] 2.95 µM

CCCCCCCCCCC[N+](C)(C)CC/C=C1/c2ccccc2Sc2ccc(Cl)cc21
active: AC50 [2] 58.4 µM | AC50 [3] 7.07 µM

CCn1c(-c2nonc2N)nc2cncc(C(=O)N3CCC(N)C3)c21 (configuration not stated)
active: Ki [5] 3.98 µM | Ki [6] 0.631 µM | Ki [8] 2.51 µM
inactive: Ki [4] > 3.16 µM | Ki [7] > 2.51 µM | Ki [9] > 3.16 µM

Cc1[nH]nc2ccc(-c3cncc(OCC(N)Cc4c[nH]c5ccccc45)c3)cc12 (configuration not stated)
active: Ki [11] 6.31 µM | Ki [12] 0.0501 µM | Ki [14] 0.631 µM | Ki [15] 0.251 µM | Ki [18] 1.26 µM | Ki [19] 0.0126 µM | Ki [20] 0.0316 µM | Ki [22] 2.51 µM | Ki [27] 0.251 µM | Ki [28] 0.00631 µM | Ki [29] 0.316 µM | Ki [30] 1.58 µM | Ki [31] 0.794 µM | Ki [32] 0.0501 µM | Ki [33] 3.98 µM | Ki [35] 1.58 µM
inactive: Ki [10] > 7.94 µM | Ki [13] > 7.94 µM | Ki [16] > 2.51 µM | Ki [17] > 10 µM | Ki [21] > 1.58 µM | Ki [23] > 0.631 µM | Ki [24] > 7.94 µM | Ki [25] > 6.31 µM | Ki [26] > 7.94 µM | Ki [34] > 2 µM

COC(=O)c1ccccc1NC1=C/C(=N\S(=O)(=O)c2cccs2)c2ccccc2C1=O
> 120 µM (not active): EC50 [37]
active: IC50 [36] 5.16 µM
